Assay results reported in patent publication US20240140931A1, “TRICYCLIC COMPOUNDS AND USES THEREOF” (HUTCHMED LIMITED, priority 2021, published 2024).
pIC50: −log10 of the molar value.

Legend:
Miapaca2 3D spheroids = assay: Assay of cell proliferation on Miapaca2 3D spheroids; type: cell-based; conditions: CellTiter-Glo 3D, 5 days treatment
Method: Example 4 Assay of Cell Proliferation on Miapaca2 3D Spheroids
1. Reagents and Materials • CellTiter-Glo® 3D Cell Viability Assay Kit: Promega, Cat #G9683; • CellCarrier Spheroid ULA 96-well plate: Corning, Cat #4515; • Instrument: Envision, Perkinelmer; • Cell line: Miapaca2, ATCC, Cat #CRL-1420.
2. Preparation of Reaction Solutions • The test compound was dissolved in DMSO and diluted with DMSO to 3000.0 μM, and the compound was further 3-fold diluted with DMSO to: 1000.0, 333.3, 111.1, 37.0, 12.3, 4.1, and 1.4 μM. Then 2 μL of the compound at different dilution concentrations was added to 198 μL of a 1640 medium to prepare a 10× test compound, wherein DMSO was at the concentration of 1% (DMSO was at the final concentration of 0.1%).
3. Experimental Methods • Day0: Digest cells and count cell numbers. Miapaca2 cells were inoculated into a spheroid ULA 96-well plate at a density of 300 cells/well at 100 μL/well and cultured in a cell incubator at 5% CO2 and 37° C. • Day2: The cell spheroids formed at day2. Add 10 μL of 10× test compounds to the 96-well plate. To the cell positive control well was added 10 μL of 1% DMSO 1640 medium. Incubate the cell spheroids in a cell incubator at 5% CO2 and 37° C. for additional 5 days. • Cell viability assay: Add 50 μL of CellTiter-Glo reagent to each well, place the plate in a microplate shaker, and lysis under shaking at 900 rpm at room temperature for 5 minutes. Then incubate the plate at room temperature in the dark for 30 minutes. • The luminescene of each well was detected on Envision2104.
Cell Survial %=(Lum(d7 treatment)−Lum(d2 cell))/(Lum(d7 cell)−Lum(d2 cell))×100
Wherein: • Lum(d7 treatment) refers to the luminescene of the test compound treated cells on day7; • Lum(d2 cell) refers to the luminescene of the 0.1% DMSO treated Miapaca2 cells on day2; • Lum(d7 cell) refers to the luminescene of the 0.1% DMSO treated Miapaca2 cells on day7. • IC50 values were calculated following formula 205: y=A+((B−A)/(1+((C/X)^D))), by using the XL-Fit 5.0 software.

[1] = test system: pERK1/2 (Thr202/Tyr204) in Miapaca2 cells; assay: Assay of intracellular pERK1/2 (Thr202/Tyr204) phosphorylation; type: cell-based; conditions: pERK1/2 (Thr202/Tyr204) HTRF
How it was run: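 HTRF read-out (665/615 nm) of phospho-ERK1/2 Thr202/Tyr204 in lysates from Miapaca2 cells exposed for 2 h to 3-fold compound dilutions at 0.5% final DMSO. Controls: lysis buffer without cells and DMSO-treated cells; IC50 from four-parameter logistic fit.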

[2] = target: Human full-length SHP2 recombinant protein (Homo sapiens (Human), UniProt Q06124); assay: Assay of full-length SHP2 phosphatase activity; type: biochemical; conditions: DiFMUP substrate, with activating peptide
How it was run: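 Readout: DiFMUP hydrolysis fluorescence (355/460 nm) after 60 min at 25 °C, following 30 min RT preincubation of compound with peptide-activated full-length human SHP2. Controls were 1% DMSO with or without enzyme; IC50 by four-parameter logistic fit.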

[3] = Homo sapiens, MIA PaCa-2, 120 h

Row | pIC50 (Miapaca2 3D spheroids; [3]) | pIC50 ([1]; Homo sapiens, MIA PaCa-2, 2 h) | pIC50 [2] | pIC50 (Miapaca2 3D spheroids) | pIC50 ([1]; 2 hours) | Structure (SMILES)
1 | 8.40 | 8.15 | 8.70 |  |  | CNC(=O)C#Cc1ccc2c(c1)[C@@H](N)C1(CCN(c3ncc(Sc4ccnc(N)c4Cl)n4nccc34)CC1)C2 [Compound 177]
2 | 7.80 | 7.89 | 9.00 |  |  | COC(=O)C#Cc1ccc2c(c1)[C@@H](N)C1(CCN(c3cnc(Sc4ccnc(N)c4Cl)cn3)CC1)C2 [Compound 300]
3 | 8.22 | 8.30 | 9.00 |  |  | NC(=O)NCC#Cc1ccc2c(c1)[C@@H](N)C1(CCN(c3cnc(Sc4ccnc(N)c4Cl)c(N)n3)CC1)C2 [Compound 159, (S)-1-(3-(1-amino-1′-(6-amino-5-((2-amino-3-chloropyridin-4-yl)thio)pyrazin-2-yl)-1,3-dihydrospiro[indene-2,4′-piperidin]-6-yl)prop-2-yn-1-yl)urea]
4 | 7.80 | 8.15 | 8.70 |  |  | Cc1nc(Sc2ccnc(N)c2Cl)c(N)nc1N1CCC2(CC1)Cc1ccc(C#CC(=O)N(C)C)cc1[C@H]2N [Compound 203]
5 | 8.30 | 7.64 | 8.40 |  |  | CCNC(=O)C#Cc1ccc2c(c1)[C@@H](N)C1(CCN(c3ncc(Sc4ccnc(N)c4Cl)nc3C)CC1)O2 [Compound 259]
6 | 7.92 | 8.30 | 9.00 |  |  | CNC(=O)C#Cc1ccc2c(c1)[C@@H](N)C1(CCN(c3nc(C)c(Sc4ccnc(N)c4Cl)nc3CO)CC1)C2 [Compound 199]
7 |  |  | 8.52 | 7.49 | 7.51 | COCC#Cc1ccc2c(c1)[C@@H](N)C1(CCN(c3cc(=O)n(-c4ccc(F)c(OC)c4Cl)c(C)n3)CC1)C2 [Compound 158]
8 | 7.33 | 7.85 | 8.30 |  |  | CNC(=O)C#Cc1ccc2c(c1)[C@@H](N)C1(CCN(c3nc(N)c(Sc4ccnc(OC)c4Cl)nc3C)CC1)C2 [Compound 188]
9 | 9.10 | 8.15 | > 9.30 |  |  | CNC(=O)C#Cc1ccc2c(c1)[C@@H](N)C1(CCN(c3cnc(Sc4cccnc4Cl)cn3)CC1)C2 [Compound 231]
10 | 7.11 | 7.16 | 8.52 |  |  | CC#Cc1ccc2c(c1)[C@@H](N)C1(CCN(c3cc(=O)n(-c4cccc(OC)c4Cl)c(C)n3)CC1)C2 [Compound 206]
11 | 7.77 |  |  |  | 7.20 | C#Cc1ccc2c(c1)[C@@H](N)C1(CCN(c3cc(=O)n(-c4cccc(C#N)c4Cl)c(C)n3)CC1)C2 [Compound 268]
12 | 7.28 | 7.48 | 8.22 |  |  | CNC(=O)C#Cc1ccc2c(c1)[C@@H](N)C1(CCN(c3nc(C)n(-c4cccc(Cl)c4Cl)c(=O)c3C)CC1)C2 [Compound 174]
13 | 7.82 | 8.22 | 8.40 |  |  | CNC(=O)C#Cc1ccc2c(c1)[C@@H](N)C1(CCN(c3nc(N)c(Sc4ccnc(N)c4Cl)nc3Cl)CC1)C2 [Compound 222, (S)-3-(1-amino-1′-(6-amino-5-((2-amino-3-chloropyridin-4-yl)thio)-3-chloropyrazin-2-yl)-1,3-dihydrospiro[indene-2,4′-piperidin]-6-yl)-N-methylpropiolamide]
14 | 7.39 | 7.32 | 8.70 |  |  | C#Cc1ccc2c(c1)[C@@H](N)C1(CCN(c3ncc(Sc4ccnc(C)n4)n4nccc34)CC1)C2 [Compound 178]
15 | 7.68 | 8.10 | 8.52 |  |  | CN(C)C(=O)C#Cc1ccc2c(c1)[C@@H](N)C1(CCN(c3ncc(Sc4ccnc(N)c4Cl)n4nccc34)CC1)C2 [Compound 196]
16 | 8.70 | 8.15 | 9.05 |  |  | CCNC(=O)C#Cc1ccc2c(c1)[C@@H](N)C1(CCN(c3ncc(Sc4ccnc(N)n4)nc3C)CC1)C2 [Compound 261]
17 | 9.00 | 8.52 | 9.00 |  |  | C#Cc1ccc2c(c1)[C@@H](N)C1(CCN(c3cnc(Sc4ccnc(N)c4Cl)cn3)CC1)C2 [Compound 252]
18 | 6.79 | 6.84 | 8.05 |  |  | CC#Cc1ccc2c(c1)[C@@H](N)C1(CCN(c3nc(C)n(-c4cccc(Cl)c4Cl)c(=O)c3F)CC1)C2 [Compound 170]

Row | pIC50 (Miapaca2 3D spheroids; [3]) | pIC50 ([1]; Homo sapiens, MIA PaCa-2, 2 h) | pIC50 [2] | pIC50 (Miapaca2 3D spheroids) | pIC50 ([1]; 2 hours) | Structure (SMILES)
19 | 9.52 | 9.00 | 9.52 |  |  | COCCNC(=O)C#Cc1ccc2c(c1)[C@@H](N)C1(CCN(c3cnc(Sc4ccnc(N)c4Cl)cn3)CC1)C2 [Compound 297]
20 | 8.00 | 7.59 | 8.30 |  |  | CNC(=O)C#Cc1ccc2c(c1)[C@@H](N)C1(CCN(c3ncc(Sc4ccnc(N)c4Cl)nc3C)CC1)O2 [Compound 266]
21 |  | 7.28 | 7.92 |  |  | C#Cc1ccc2c(c1)CC1(CCN(c3cc(=O)n(-c4cccc(Cl)c4Cl)c(C)n3)CC1)[C@@H]2N (atropisomer, axis not shown) [Compound 20]
22 |  | 7.24 | 9.00 |  |  | COc1c(F)ccc(-n2c(C)nc(N3CCC4(CC3)Cc3ccc(C#CCN(C)C)cc3[C@H]4N)cc2=O)c1F [Compound 83]
23 |  |  | 8.89 |  | 7.82 | COCC#Cc1ccc2c(c1)[C@@H](N)C1(CCN(c3cc(=O)n(-c4ccc(F)c(Cl)c4Cl)c(C)n3)CC1)C2 (atropisomer, axis not shown) [Compound 124]
24 |  |  | 8.70 |  | 7.07 | C#Cc1ccc2c(c1)[C@@H](N)C1(CCN(c3cc(=O)n(-c4ccccc4Cl)c(C)n3)CC1)C2 (single isomer, unassigned) [Compound 56]
25 |  | 6.85 | 7.92 |  |  | C#Cc1ccc2c(c1)[C@@H](N)C1(CCN(c3ncc(N4CCCc5ncccc54)c(=O)n3C)CC1)C2 [Compound 287]
26 |  | 7.66 | 9.00 |  |  | CN(C)CC#Cc1ccc2c(c1)[C@@H](N)C1(CCN(c3ncc(Sc4ccnc(N)c4Cl)c4nccn34)CC1)C2 [Compound 71]
27 |  | 6.73 | 8.00 |  |  | CCNC(=O)C#Cc1ccc2c(c1)[C@@H](N)C1(CCN(c3ncc(N4CCCc5ncccc54)nc3C)CC1)C2 [Compound 258]
28 |  | < 6.00 | 7.85 |  |  | C#Cc1ccc2c(c1)[C@@H](N)C1(CCN(c3cc(=O)n(-c4ccc(C#N)c(O)c4F)c(C)n3)CC1)C2 [Compound 185]
29 |  | 8.05 | 8.52 |  |  | COCC#Cc1ccc2c(c1)[C@@H](N)C1(CCN(c3ncc(Sc4ccnc(C)n4)c4nccn34)CC1)C2 [Compound 132]
30 |  | 7.34 | 8.70 |  |  | Cc1nc(N2CCC3(CC2)Cc2ccc(C#CCN(C)C)cc2[C@H]3N)n2ccnc2c1Sc1ccnc(N)c1Cl [Compound 75]
31 |  |  | 8.52 |  | 7.37 | C#Cc1ccc2c(c1)[C@@H](N)C1(CCN(c3cc(=O)n(-c4ccc(F)c(OC)c4F)c(C)n3)CC1)C2 [Compound 78]
32 |  | 8.22 | 9.00 |  |  | Cc1nc(N2CCC3(CC2)Cc2ccc(C#CCO)cc2[C@H]3N)cc(=O)n1-c1cccc(Cl)c1Cl [Compound 32]
33 |  | 8.52 | 9.22 |  |  | NC(=O)C#Cc1ccc2c(c1)[C@@H](N)C1(CCN(c3cnc(Sc4ccnc(N)c4Cl)c(N)n3)CC1)C2 [Compound 129]
34 |  |  | 7.20 |  | 6.64 | C#Cc1ccc2c(c1)[C@@H](N)C1(CCN(c3nc(C)n(-c4cccc(Cl)c4Cl)c(=O)c3C)CC1)C2 (atropisomer, axis not shown) [Compound 48]
35 |  | 6.44 | 7.74 |  |  | C#Cc1ccc2c(c1)[C@@H](N)C1(CCN(c3cc(=O)n(-c4cccc(SC)c4)c(C)n3)CC1)C2 [Compound 53]

Row | Structure (SMILES) | pIC50 (Miapaca2 3D spheroids; [3]) | pIC50 ([1]; Homo sapiens, MIA PaCa-2, 2 h) | pIC50 [2] | pIC50 (Miapaca2 3D spheroids) | pIC50 ([1]; 2 hours)
36 | C#Cc1ccc2c(c1)[C@@H](N)C1(CCN(c3cc(=O)n(-c4ccc(C#N)c(Cl)c4Cl)c(C)n3)CC1)C2 [Compound 184] | 7.02 |  | 8.52 |  | 7.17
37 | C#Cc1ccc2c(c1)[C@@H](N)C1(CCN(c3cc(=O)n(-c4ccc(C#N)c(F)c4Cl)c(C)n3)CC1)C2 [Compound 198] |  | 6.72 | 7.80 |  | 
